Test results published in patent publication US8343459B2, “Method for production of radiation diagnostic imaging agent” (Nihon Medi-Physics Co., Ltd., priority 2007, dated 2013).

test: Relationship between pH and decrease of radiochemical purity (storage at 25° C., TLC analysis); type: physicochemical; conditions: pH value not more than 5.9, no pharmaceutical additives or buffers that prevent radiolysis
Experimental: Radioactivity of the obtained stock solution of anti-[^18F]-FACBC was measured, and then the stock solution was diluted with a physiological saline solution so as to have a radioactive concentration of about 510 MBq/mL at the time when experiment was initiated (0 hour in Table 9). 2.23 mL of this solution was aliquoted in a vial of 5 mL in volume, and a predetermined amount of a predetermined solution indicated in Table 8 was added thereto, to obtain a sample solution. The radioactive concentration of the sample solutions at the end of preparation was […].
The sample solution was stored in an electric thermostatic chamber adjusted to 25° C., and was then subjected to TLC analysis which was performed on the following conditions at the time of initiation of the experiment (0 hour) and 8.5 hours after the initiation of the experiment. Values of radiochemical purity were calculated in accordance with the following equation (1). Measurement of the radiochemical purity was repeated three times for each sample solution.
Mobile phase: acetonitrile/water/100% acetic acid=4/1/1
TLC plate: Silica Gel 60F254 (trade name, thickness: 0.25 mm, manufactured by Merck & Co., Inc.)
TLC scanner: Rita Star (manufactured by Raytest)
Number of analysis: Three times

For `NC1(C(=O)O)CC([18F])C1` (centres unmarked) [[^18F]FACBC, 3-[^18F]fluoro-1-aminocyclobutanecarboxylic acid], the stability against radiolysis was “stability thereof is maintained”.

test: not given; conditions: Japanese Pharmaceutical Excipients Directory 2000; cited from earlier work

Point of comparison: `OC[C@@H](O)[C@@H](O)[C@H](O)[C@H](O)CO` [mannitol], “maximum dose in case of intravenous administration” value 1.2 g. Against it:
- OC[C@@H](O)[C@H](O)[C@@H](O)CO [xylitol] — lower, 0.2 g
- O=C(CO)[C@@H](O)[C@H](O)[C@H](O)CO [fructose] — lower, 0.9 g
- O=C[C@H](O)[C@@H](O)[C@H](O)[C@H](O)CO [glucose] — higher, 8 g
- OC[C@@H](O)[C@@H](O)[C@H](O)[C@@H](O)CO [sorbitol] — higher, 1.5 g
- OC[C@H]1O[C@@H](O[C@H]2[C@H](O)[C@@H](O)C(O)O[C@@H]2CO)[C@H](O)[C@@H](O)[C@H]1O (some centres unmarked) [lactose] — higher, 1.25 g
- OC[C@H]1O[C@H](O[C@H]2[C@H](O)[C@@H](O)[C@H](O)O[C@@H]2CO)[C@H](O)[C@@H](O)[C@@H]1O [martose] — higher, 10 g
